This series in a line: Solubility of curcumin in water (amount dissolved, UV/Vis measurement). It counts as physicochemical. The conditions noted are these: visual yellow colouring of supernatant. On the procedure: Curcumin was first incorporated into eggshell flour. Two different methods were used for this purpose. […] Ethanol was evaporated without stirring (HP). […] Ethanol was evaporated with stirring (R). For comparison, curcumin was mixed with eggshell meal (physical mixture=PM) and added to water as a pure substance (bulk). From all samples, the amount of dissolved curcumin was measured. […] The dissolved amount of curcumin was determined at different time points by UV/Vis measurement. […] For method 2, the solubility was approximately 50 times higher.
The physical mixture contained similar amounts.

In the case of `COc1cc(/C=C/C(=O)CC(=O)/C=C/c2ccc(O)c(OC)c2)ccc1O` [pure substance, Curcumin], the “dissolution of curcumin in the water phase (discolouration of aqueous supernatant)” value is reported as “no dissolution of curcumin occurred”.

The record behind these values is US20250262161A1, “COMPOSITION, METHOD FOR ITS PREPARATION AND ITS USE FOR INCREASING THE SOLUBILITY OF ACTIVE SUBSTANCES” (Philipps-Universität Marburg, priority 2021, published 2025).
